Reference: ChEMBL document CHEMBL3508140 (2016)

Legend:
[1] = Half-life of epirubicin in tumor following single intravenous epirubicin at 10 mg.Kg-1 dose in female mouse bearing colon tumor; format: ADME, organism-based, Neoplasm; conditions: BALB/c
[2] = Plasma clearance of epirubicin following intravenous epirubicin at 75 mg.m-2 dose in cancer patients; format: ADME, organism-based; conditions: human, in vivo
[3] = Terminal half-life of 4'-epiadriamycin following intravenous 4'-epiadriamycin at 1.27 mg.Kg-1 dose in dog; format: ADME, organism-based, Canis lupus familiaris; conditions: Beagle, plasma
[4] = Mean AUC of epirubicin following intravenous epirubicin at 60 mg.m-2 dose in cancer patients; format: ADME, organism-based; conditions: human, plasma
[5] = Mean plasma clearance of epirubicin following intravenous epirubicin at 150 mg.m-2 dose in advanced cancer patients; format: ADME, organism-based; conditions: human, read-out: CLp (converted)
[6] = Mean residence time (MRT) of epirubicin following intrahepatic epirubicin emulsion at 1 mg.Kg-1 dose in rabbit; format: ADME, organism-based, Oryctolagus cuniculus; conditions: both, New Zealand White, blood, read-out: Mean residence time (converted)
[7] = Intermediate phase half-life of epirubicin following intravenous epirubicin at 75 mg.m-2 dose in cancer patients; format: ADME, organism-based, Plasma; conditions: human, in vivo
[8] = Plasma clearance of epirubicin following intravenous epirubicin at 20 mg.m-2 dose in cancer patients; format: ADME, organism-based; conditions: human, in vivo
[9] = Initial phase half-life of epirubicin following intravenous epirubicin at 20 mg.m-2 dose in cancer patients; format: ADME, organism-based, Plasma; conditions: human, in vivo
[10] = AUC of epirubicin following intravenous epirubicin at 1 mg.Kg-1 dose in rabbit; format: ADME, organism-based, Oryctolagus cuniculus; conditions: both, New Zealand White, plasma
[11] = Plasma clearance of epirubicin following intravenous epirubicin at 3 mg.Kg-1 dose in rabbit; format: ADME, organism-based, Oryctolagus cuniculus; conditions: both, New Zealand White
[12] = Detection of epirubicin in plasma following single intravenous epirubicin at 10 mg.Kg-1 dose in female mouse bearing colon tumor; format: ADME, organism-based, BALB/c; conditions: in vivo
[13] = Plasma clearance of epirubicin following intravenous epirubicin emulsion at 1 mg.Kg-1 dose in rabbit; format: ADME, organism-based, Oryctolagus cuniculus, Blood; conditions: both, New Zealand White
[14] = Volume of distribution of 4'-epiadriamycin intravenous 4'-epiadriamycin at 1.27 mg.Kg-1 dose in dog; format: ADME, organism-based, Canis lupus familiaris; conditions: Beagle, plasma
[15] = Terminal half-life of epirubicin following intrahepatic epirubicin solution at 1 mg.Kg-1 dose in rabbit; format: ADME, organism-based, Oryctolagus cuniculus; conditions: both, New Zealand White, blood
[16] = Plasma clearance of epirubicin following intravenous epirubicin at 90-150 mg.m-2 dose in cancer patients; format: ADME, organism-based; conditions: human, in vivo
[17] = Half-life of terminal elimination phase of epirubicin following intravenous epirubicin at 40-135 mg.m-2 dose in cancer patients; format: ADME, organism-based; conditions: human, plasma
[18] = Mortality occurred following reference intravenous epirubicin at 1 mg.Kg-1 per week in rat; format: toxicity, organism-based, SD; conditions: in vivo
[19] = Cumulative urinary excretion of epirubicin and its metabolites following epirubicin at 75-90 mg.m-2 dose in cancer patients; format: ADME, organism-based, Urine; conditions: human, in vivo
[20] = Initial phase half-life of epirubicin following intravenous epirubicin at 50 mg.m-2 dose in cancer patients; format: ADME, organism-based, Plasma; conditions: human, in vivo
[21] = Half-life of terminal elimination phase of epirubicin following intravenous epirubicin at 40-60 mg.m-2 dose in cancer patients; format: ADME, organism-based; conditions: human, plasma
[22] = Half-life of terminal elimination phase of epirubicin following intravenous epirubicin at 60-90 mg.m-2 dose in cancer patients; format: ADME, organism-based; conditions: human, plasma
[23] = Detection of epirubicin in tumor following single intravenous epirubicin at 10 mg.Kg-1 dose in female mouse bearing colon tumor; format: ADME, organism-based, BALB/c, Neoplasm; conditions: in vivo
[24] = Plasma clearance of epirubicin following intravenous epirubicin solution at 1 mg.Kg-1 dose in rabbit; format: ADME, organism-based, Oryctolagus cuniculus, Blood; conditions: both, New Zealand White
[25] = Urinary excretion of epirubicin following epirubicin at 60-150 mg.m-2 dose in cancer patients; format: ADME, organism-based; conditions: human, urine; read-out: Compound recovery
[26] = Half-life of terminal elimination phase of epirubicin following intravenous epirubicin at 50 mg.m-2 dose in cancer patients; format: ADME, organism-based; conditions: human, plasma
[27] = Volume of distribution as steady state of epirubicin following intravenous epirubicin at 50 mg.m-2 dose in cancer patients; format: ADME, organism-based, Plasma; conditions: human, in vivo
[28] = Terminal elimination of metabolite of epirubicin following intravenous epirubicin at 30-90 mg.m-2 dose in cancer patients; format: ADME, organism-based, Plasma; conditions: human, in vivo
[29] = Incidence of persistent proteinuria following reference intravenous epirubicin at 1 mg.Kg-1 per week in rat; format: toxicity, organism-based, SD; conditions: in vivo
[30] = Half-life of terminal elimination phase of epirubicin following intravenous epirubicin at 75 mg.m-2 dose in cancer patients; format: ADME, organism-based; conditions: human, plasma
[31] = Percentage of epirubicin excreted unchanged in urine following epirubicin at 60 mg.m-2 dose in cancer patients; format: ADME, organism-based; conditions: human, at 60 mg/m2, read-out: Compound recovery
[32] = Decrease in albumin due to persistent proteinuria following reference intravenous epirubicin at 1 mg.Kg-1 per week in rat; format: toxicity, organism-based, SD, Serum; conditions: in vivo
[33] = Increase in serum triglycerides level following reference intravenous epirubicin at 1 mg.Kg-1 per week in rat; format: toxicity, organism-based, SD; conditions: in vivo
[34] = Intermediate phase half-life of epirubicin following intravenous epirubicin at 20 mg.m-2 dose in cancer patients; format: ADME, organism-based, Plasma; conditions: human, in vivo
[35] = Plasma clearance of epirubicin following intravenous epirubicin at 70 mg.m-2 dose in cancer patients; format: ADME, organism-based; conditions: human, in vivo
[36] = Volume of distribution as steady state of epirubicin following intravenous epirubicin at 30-90 mg.m-2 dose in cancer patients; format: ADME, organism-based, Plasma; conditions: human, in vivo
[37] = Mean AUC (8-48 h) of epirubicin following intravenous epirubicin at 1 mg.Kg-1 dose administered approximately 25 minute prior to epirubicin once weekly for four weeks in dog; format: ADME, organism-based, Canis lupus familiaris; conditions: Beagle, plasma
[38] = Half-life of terminal elimination phase of epirubicin following intravenous epirubicin at 30-90 mg.m-2 dose in cancer patients; format: ADME, organism-based; conditions: human, plasma
[39] = Initial phase half-life of epirubicin following intravenous epirubicin at 25-35 mg.m-2 dose in cancer patients; format: ADME, organism-based, Plasma; conditions: human, in vivo
[40] = Half-life of epirubicin in heart following single intravenous epirubicin at 10 mg.Kg-1 dose in female mouse bearing colon tumor; format: ADME, organism-based; conditions: BALB/c
[41] = Terminal half-life of epirubicin following intravenous epirubicin at 1 mg.Kg-1 dose in rabbit; format: ADME, organism-based, Oryctolagus cuniculus; conditions: both, New Zealand White, plasma
[42] = Volume of distribution of epirubicin following intravenous epirubicin emulsion at 1 mg.Kg-1 dose in rabbit; format: ADME, organism-based, Oryctolagus cuniculus; conditions: both, New Zealand White, blood
[43] = Volume of distribution of epirubicin following intravenous epirubicin at 1 mg.Kg-1 dose in rabbit; format: ADME, organism-based, Oryctolagus cuniculus; conditions: both, New Zealand White, plasma
[44] = Cumulative urinary excretion of epirubicin and its metabolites following epirubicin at 60-150 mg.m-2 dose in cancer patients; format: ADME, organism-based, Urine; conditions: human, in vivo
[45] = Volume of distribution of epirubicin following intravenous epirubicin solution at 1 mg.Kg-1 dose in rabbit; format: ADME, organism-based, Oryctolagus cuniculus; conditions: both, New Zealand White, blood
[46] = Initial phase half-life of epirubicin following intravenous epirubicin at 75 mg.m-2 dose in cancer patients; format: ADME, organism-based, Plasma; conditions: human, in vivo
[47] = Terminal elimination of metabolite of epirubicin following intravenous epirubicin at 25-35 mg.m-2 dose in cancer patients; format: ADME, organism-based, Plasma; conditions: human, in vivo
[48] = Plasma clearance of epirubicin following intravenous epirubicin at 1 mg.Kg-1 dose in rabbit; format: ADME, organism-based, Oryctolagus cuniculus; conditions: both, New Zealand White
[49] = Recovery of epirubicin following intraperitoneal epirubicin at 4 mg.Kg-1 dose in hamster; format: ADME, organism-based, Cricetulus griseus, Plasma; conditions: chinese hamster, in vivo, ip
[50] = AUC of epirubicin following intrahepatic epirubicin emulsion at 1 mg.Kg-1 dose in rabbit; format: ADME, organism-based, Oryctolagus cuniculus; conditions: both, New Zealand White, blood
[51] = Urinary elimination of 4'-epiadriamycin following intravenous bolus 4'-epiadriamycin at 10 mg.Kg-1 dose in rat; format: ADME, organism-based; conditions: SD, urine, read-out: Compound recovery

Work on `COc1cccc2c1C(=O)c1c(O)c3c(c(O)c1C2=O)C[C@@](O)(C(=O)CO)C[C@@H]3O[C@H]1C[C@H](N)[C@@H](O)[C@H](C)O1.Cl` [EPIRUBICIN HYDROCHLORIDE] yielded a half-life [1] of 1480 min, a CLp [2] of 29 L.h-1.m-2 and a half-life [3] of 7.1 min. It also gave an AUC [4] of 1500 ng·h/mL, a clearance [5] of 1130 mL/min and an MRT [6] of 1.11 h. For the same molecule, the t1/2 [7] was 1.7 h, the CLp [8] was 71.5 L.h-1.m-2 and the t1/2 [9] was 3.4 min. The AUC [10] was 420 ng·h/mL, the clearance [11] was 323 mL/min and the Compound recovery [12] was “OUTCOME = Observed”. It also gave a clearance [13] of 1560 mL/min, a Vd [14] of 71.9 L/kg and a half-life [15] of 68.4 min. The CLp [16] was 48 L.h-1.m-2, the half-life [17] was 1240 min and the Mortality [18] was “OUTCOME = Observed, N_AFFECTED = 5”. For the same molecule, the Radiolabel recovery [19] was 10.7%, the t1/2 [20] was 3.44 min and the half-life [21] was 918 min. For the same molecule, the half-life [22] was 2400 min, the Compound recovery [23] was “OUTCOME = Observed” and the clearance [24] was 813 mL/min. The dose excreted at 168 h [25] was 3.2%, the half-life [26] was 1100 min and the Vss [27] was 583 L.m-2. The t1/2 [28] was 32.2 h, the Incidence [29] was “OUTCOME = Observed” and the half-life [30] was 2690 min. For the same molecule, the dose excreted at 7 Day [31] was 6.4%, the ALB_CHANGE [32] was “OUTCOME = Decreased” and the TRIG_CHANGE [33] was “OUTCOME = Increased”. For the same molecule, the t1/2 [34] was 53.4 min, the CLp [35] was 84.2 L.h-1.m-2 and the Vss [36] was 1858 L.m-2. The AUC [37] was 233 ng·h/mL, the half-life [38] was 2360 min and the t1/2 [39] was 2.53 min. For the same molecule, the half-life [40] was 636 min, the half-life [41] was 1370 min and the Vd [42] was 18.8 L/kg. It also gave a Vd [43] of 368 L/kg, a Radiolabel recovery [44] of 5.9% and a Vd [45] of 30.9 L/kg. The t1/2 [46] was 5.4 min, the t1/2 [47] was 21.1 h and the clearance [48] was 196 mL/min. The Compound recovery [49] was 83 10^-9M, the AUC [50] was 36.4 ng·h/mL and the dose excreted [51] was 3.9%.
